Where two headings read alike, the source gives them in different places.
Assays:
[1] = system: HIV-1 infection of TZM-bl cells; assay: HIV-1 infectivity enhancement assay, β-galactosidase luminescence; format: cell-based
[2] = format: physicochemical; conditions: for ThT Cat. / ThT-Fluorescence (categorical): ThT-active if fluorescence at least twice the control
Procedure, shortened: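 Preformed peptide fibrils (1 mg/mL) mixed with 50 µM ThT in PBS, 15 min at RT, fluorescence ex 440/em 488 nm versus PBS blank, triplicates. Zeta potential: peptides at 1 mg/mL in PBS pH 7.4, aged 1 d at RT, diluted in 1 mM KCl, Smoluchowski from electrophoretic mobility.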

[3] = format: physicochemical; design: key to Fibril / Fibril Formation / TEM 2cat / Fibril: 1 = fibrils present; 0 non-fibrillar structures; conditions: for Fibril / Fibril Formation: TEM, 1 mg/mL, uranyl acetate stain, qualitative
[4] = Feb2021; figures match the 1.3 µM column
[5] = Feb2021; infectivity relative to virus only
[6] = Feb2021; log10 of infectivity relative to EF-C
[7] = Feb2021; n-fold infectivity relative to EF-C
[8] = infectivity class (low / medium / high) of each library peptide; main list in c1-c6, same classes repeated in sub-lists of sequences containing the hydrophobicity/charge patterns P+,H0,P+,H0,P0,H0,P0; P+,H0,P0,H0,P0,H0,P0; P+,H0,P0,H0
[9] = infectivity class (low / medium / high) of the peptide in the sequence-pattern analysis, Fig. S22-A4; class limits not given
[10] = infectivity enhancement relative to EF-C (=1); Feb2021 run
[11] = infectivity n-fold relative to virus only; Feb2021 run
[12] = log10 of HIV-1 infection of TZM-bl cells relative to EF-C; Fig S15 source data; asymmetric std dev errors
[13] = log10 of infectivity relative to EF-C; Feb2021 run
[14] = ThT fluorescence relative to blank (42.1851851851852 a.u.)
[15] = ThT fluorescence relative to blank, blank = 42.1851851851852
[16] = log10 of infection relative to EF-C, Figure 6C
[17] = n-fold infection vs virus only, relative to that of EF-C, 1.3 µM peptide
[18] = Feb2021 run; infectivity n-fold relative to virus alone
[19] = Feb2021 run; log10 of infectivity relative to EF-C
[20] = Feb2021 run; n-fold infectivity relative to EF-C
[21] = relative to blank 42.1851851851852 a.u.
[22] = Fig S8 panels B, D; infectivity enhancement relative to EF-C
[23] = Fig S8 panels B, D; infectivity n-fold relative to virus alone
[24] = log10 of infection relative to EF-C, Figure 7B
[25] = HIV-1 infection relative to EF-C; Fig 23 plot, panels A and B; mean of 3 values
[26] = HIV-1 infection relative to EF-C; Fig 23 plot, single data point, replicate 1
[27] = HIV-1 infection relative to EF-C; Fig 23 plot, single data point, replicate 2
[28] = HIV-1 infection relative to EF-C; Fig 23 plot, single data point, replicate 3
[29] = fibril-forming peptides with positive zeta-potential, low count rate

KVKVQVVV [TG8]
Absolute Infectivity / RLU /s (Feb2021) [1, 4]: 820 RLU /s | n-fold to virus (Feb2021) [1, 5]: 1.473 | Log10 of Rel to EFC (Feb2021) [1, 6]: -1.455 | Rel-to EFC (Feb-2021) [1, 7]: 0.03506 | infectivity [1, 8]: low | infectivity [1, 9]: low | Rel-to EFC (Feb-2021) [1, 10]: 0.03506 | n-fold to virus (Feb2021) [1, 11]: 1.473 | Log10 Inf. rel. to EF-C [1, 12]: -1.455 | Log10 of Rel to EFC (Feb2021) [1, 13]: -1.455 | Tht rel to blank (42.1851851851852) [2, 14]: 0.8863 | Tht rel to blank (42.1851851851852) [2, 15]: 0.8863 | Tht category (> 1.5 to blank = +) ([2]; category 1/0): 0 (ThT-inactive (N-Fold <2)) | TEM: 1= fibrils, 0= aggregates (micelle), 0.5 = aggregates and fibrils, -1 = nothing obersved, STD prep [3]: 1

RIRFHIW
Log10 Infection Rel EF-C [1, 16]: -1.984 | Inf. rel. EF-C [1, 17]: 0.01 | ThT Cat. / ThT-Fluorescence (categorical) [2]: 0 (ThT-inactive (N-Fold <2)) | Fibril / Fibril Formation [3]: 0

KIKIQIW [TM69]
Absolute Infectivity / RLU /s (Feb2021) [1, 4]: 4280 RLU /s | n-fold to virus (Feb2021) [1, 5]: 5.89 | Log10 of Rel to EFC (Feb2021) [1, 6]: -0.8533 | Rel-to EFC (Feb-2021) [1, 7]: 0.1402 | n-fold to virus (Feb2021) [1, 18]: 5.89 | Log10 of Rel to EFC (Feb2021) [1, 19]: -0.8533 | Rel-to EFC (Feb-2021) [1, 20]: 0.1402 | infectivity [1, 8]: medium | Log10 Inf. rel. to EF-C [1, 12]: -0.8533 | Tht rel to blank (42.1851851851852) [2, 15]: 2.047 | Tht category (> 1.5 to blank = +) ([2]; category 1/0): 1 (ThT. Cat is 1, if Rel. ThT >2) | Tht rel to blank (42.1851851851852) [2, 21]: 2.047 | TEM: 1= fibrils, 0= aggregates (micelle), 0.5 = aggregates and fibrils, -1 = nothing obersved, STD prep [3]: 1

KIKIQIRGD [MG6]
infectivity [1, 8]: low | infectivity [1, 9]: low | Log10 Inf. rel. to EF-C [1, 12]: -1.678 | Tht category (> 1.5 to blank = +) ([2]; FigS26): 1 (Tht category (> 1.5 to blank = +)) | TEM: 1= fibrils, 0= aggregates (micelle), 0.5 = aggregates and fibrils, -1 = nothing obersved, STD prep ([3]; FigS26): 1

HHHHKIKIQINMYYYY [TM16]
Absolute Infectivity / RLU /s (Feb2021) [1, 4]: 22408.88889 RLU /s | n-fold to virus (Feb2021) [1, 5]: 46.56 | Log10 of Rel to EFC (Feb2021) [1, 6]: 0.04454 | Rel-to EFC (Feb-2021) [1, 7]: 1.108 | Rel-to EFC [1, 22]: 1.108 | n-fold to virus [1, 23]: 46.56 | infectivity [1, 8]: high | infectivity [1, 9]: high | Log10 Inf. rel. to EF-C [1, 12]: 0.04454 | Tht rel to blank (42.1851851851852) [2, 15]: 12.17 | Tht category (> 1.5 to blank = +) ([2]; category 1/0): 1 (ThT. Cat is 1, if Rel. ThT >2) | TEM: 1= fibrils, 0= aggregates (micelle), 0.5 = aggregates and fibrils, -1 = nothing obersved, STD prep [3]: 1

RINFWFW
Log10 Infection Rel EF-C [1, 16]: -1.347 | Inf. rel. EF-C [1, 17]: 0.04 | ThT Cat. / ThT-Fluorescence (categorical) [2]: 1 (ThT. Cat is 1, if Rel. ThT >2) | Fibril / Fibril Formation [3]: 0

NMWQKAKAQA [JG10]
infectivity [1, 8]: low | Log10 Inf. rel. to EF-C [1, 12]: -1.376 | Tht category (> 1.5 to blank = +) ([2]; FigS26): 1 (Tht category (> 1.5 to blank = +)) | TEM: 1= fibrils, 0= aggregates (micelle), 0.5 = aggregates and fibrils, -1 = nothing obersved, STD prep ([3]; FigS26): 1

KYFIL [reference compound]
Log10 Infection Rel EF-C [1, 24]: -1.14 | Inf. rel. EF-C [1, 17]: 0.07 | ThT Cat. / ThT-Fluorescence (categorical) [2]: 0 (ThT-inactive (N-Fold <2)) | Fibril / Fibril Formation [3]: 0

RVHLGLG
Inf. rel. EF-C [1, 25]: 0.0206 | Inf. rel. EF-C [1, 26]: 0.01527 | Inf. rel. EF-C [1, 27]: 0.01985 | Inf. rel. EF-C [1, 28]: 0.02667 | Log10 Infection Rel EF-C [1, 16]: -1.686 | Inf. rel. EF-C [1, 17]: 0.02 | ThT Cat. / ThT-Fluorescence (categorical) [2]: 0 (ThT-inactive (N-Fold <2)) | Fibril / Fibril Formation [3]: 1

MKVIFLKDVKG [reference compound]
infectivity enhancement, in words [1, 29]: do not enhance infectivity | Log10 Infection Rel EF-C [1, 24]: -0.93 | Inf. rel. EF-C [1, 17]: 0.12 | ThT Cat. / ThT-Fluorescence (categorical) [2]: 0 (ThT-inactive (N-Fold <2)) | Fibril / Fibril Formation [3]: 1

IKFLSVN [reference compound]
infectivity enhancement, in words [1, 29]: do not enhance infectivity | Log10 Infection Rel EF-C [1, 24]: -1.16 | Inf. rel. EF-C [1, 17]: 0.07 | ThT Cat. / ThT-Fluorescence (categorical) [2]: 0 (ThT-inactive (N-Fold <2)) | Fibril / Fibril Formation [3]: 1

IFQINS [reference compound]
Log10 Infection Rel EF-C [1, 24]: -1.21 | Inf. rel. EF-C [1, 17]: 0.06 | ThT Cat. / ThT-Fluorescence (categorical) [2]: 1 (ThT. Cat is 1, if Rel. ThT >2) | Fibril / Fibril Formation [3]: 1

KLKLTLT
Inf. rel. EF-C [1, 25]: 0.03847 | Inf. rel. EF-C [1, 26]: 0.0783 | Inf. rel. EF-C [1, 27]: 0.01816 | Inf. rel. EF-C [1, 28]: 0.01895 | Log10 Infection Rel EF-C [1, 16]: -1.415 | Inf. rel. EF-C [1, 17]: 0.04 | ThT Cat. / ThT-Fluorescence (categorical) [2]: 1 (ThT. Cat is 1, if Rel. ThT >2) | Fibril / Fibril Formation [3]: 1

HIHIQIC [CN12]
Absolute Infectivity / RLU /s (Feb2021) [1, 4]: 4621 RLU /s | n-fold to virus (Feb2021) [1, 5]: 11.38 | Log10 of Rel to EFC (Feb2021) [1, 6]: -0.5672 | Rel-to EFC (Feb-2021) [1, 7]: 0.2709 | Rel-to EFC [1, 22]: 0.2709 | n-fold to virus [1, 23]: 11.38 | infectivity [1, 8]: medium | Log10 Inf. rel. to EF-C [1, 12]: -0.5672 | Tht rel to blank (42.1851851851852) [2, 15]: 12.46 | Tht category (> 1.5 to blank = +) ([2]; category 1/0): 1 (ThT. Cat is 1, if Rel. ThT >2) | TEM: 1= fibrils, 0= aggregates (micelle), 0.5 = aggregates and fibrils, -1 = nothing obersved, STD prep [3]: 1

KFKQFFINMWQ [VH14]
Absolute Infectivity / RLU /s (Feb2021) [1, 4]: 14953.33333 RLU /s | n-fold to virus (Feb2021) [1, 5]: 38.67 | Log10 of Rel to EFC (Feb2021) [1, 6]: -0.03603 | Rel-to EFC (Feb-2021) [1, 7]: 0.9204 | infectivity [1, 9]: high | Log10 Inf. rel. to EF-C [1, 12]: -0.03603 | Tht rel to blank (42.1851851851852) [2, 15]: 1.085 | Tht category (> 1.5 to blank = +) ([2]; category 1/0): 0 (ThT-inactive (N-Fold <2)) | TEM: 1= fibrils, 0= aggregates (micelle), 0.5 = aggregates and fibrils, -1 = nothing obersved, STD prep [3]: 0

RGDKIKIQINMC [psis29]
n-fold to virus (Feb2021) [1, 18]: 44.93 | Log10 of Rel to EFC (Feb2021) [1, 19]: 0.02911 | Rel-to EFC (Feb-2021) [1, 20]: 1.069 | infectivity [1, 8]: high | infectivity [1, 9]: high | Rel-to EFC (Feb-2021) [1, 10]: 1.069 | n-fold to virus (Feb2021) [1, 11]: 44.93 | Log10 Inf. rel. to EF-C [1, 12]: 0.02911 | Log10 of Rel to EFC (Feb2021) [1, 13]: 0.02911 | Tht rel to blank (42.1851851851852) [2, 14]: 1.396 | Tht category (> 1.5 to blank = +) ([2]; category 1/0): 0 (ThT-inactive (N-Fold <2)) | Tht rel to blank (42.1851851851852) [2, 21]: 1.396 | TEM: 1= fibrils, 0= aggregates (micelle), 0.5 = aggregates and fibrils, -1 = nothing obersved, STD prep ([3]; FigS26): 1 | TEM: 1= fibrils, 0= aggregates (micelle), 0.5 = aggregates and fibrils, -1 = nothing obersved, STD prep [3]: 1

RVRVTVT
Inf. rel. EF-C [1, 25]: 0.05962 | Inf. rel. EF-C [1, 26]: 0.04632 | Inf. rel. EF-C [1, 27]: 0.07129 | Inf. rel. EF-C [1, 28]: 0.06124 | Log10 Infection Rel EF-C [1, 16]: -1.225 | Inf. rel. EF-C [1, 17]: 0.06 | ThT Cat. / ThT-Fluorescence (categorical) [2]: 0 (ThT-inactive (N-Fold <2)) | Fibril / Fibril Formation [3]: 0

KIKIKIKI [TM13]
n-fold to virus (Feb2021) [1, 18]: 1.369 | Log10 of Rel to EFC (Feb2021) [1, 19]: -1.487 | Rel-to EFC (Feb-2021) [1, 20]: 0.03258 | infectivity [1, 9]: low | Log10 Inf. rel. to EF-C [1, 12]: -1.487 | Tht category (> 1.5 to blank = +) ([2]; category 1/0): 1 (ThT. Cat is 1, if Rel. ThT >2) | Tht rel to blank (42.1851851851852) [2, 21]: 3.325 | TEM: 1= fibrils, 0= aggregates (micelle), 0.5 = aggregates and fibrils, -1 = nothing obersved, STD prep [3]: 0

— paper PMC10447463, “Data-mining unveils structure–property–activity correlation of viral infectivity enhancing self-assembling peptides” (Nature Communications, 2023)
